{"source": "paper PMC10126473", "about": "(Frontiers in Pharmacology, 2023)", "key": {"physchem": {"experiment": "physchem", "conditions": "pH 7.4, aqueous buffer, kinetic from dmso stock", "experimental": "Samples were incubated at room temperature for 6 h and vacuum-filtered using Tecan Te-Vac to remove any precipitates. The concentration of the compound in the filtrate was measured via UV absorbance (λ: 250–498 nm). […] All compounds were tested in duplicates. The kinetic solubility (µg/mL) of compounds was calculated using the µSOL Evolution software."}, "in vivo [1]": {"experiment": "in vivo", "conditions": "male, C57BL/6, mouse, in vivo", "experimental": "The in-life study (Animal Study Protocol Number: NIH ORS-51) was conducted at the NIH Animal Facility by the Division of Veterinary Resources (DVR, Bethesda, MD). In this study, 25–35 g male C57BL/6 mice (Charles River Laboratories, Frederick, MD) were used. For the IV groups, 66 mice (33 mice per dosing group, 3 mice per timepoint) were used for a single bolus IV dose of 3 or 10 mg/kg of PDN via tail vein injection. […] The IV and PO doses were selected to obtain a complete concentration profile in plasma and tissues, based on a preliminary study. Animals were not fasted in this study. […] All dosing solutions were freshly prepared on the day of dosing. At designated time points, blood samples were collected, and mice were euthanized with CO2 in accordance with NIH ARAC Guidelines after blood collection. The death was ensured by cervical dislocation or transthoracic puncture. Lung, liver, adipose, brain, heart, small intestine, kidney, skeletal muscle, and spleen samples were obtained from mice. […] Tissue samples were rinsed with cold saline, dried on filtrate paper, weighed, and snap frozen by placing into dry ice after collection. All samples were stored at −80°C until the analysis. All blood samples were collected in K2EDTA tubes and centrifuged at 3000 g for 10 min at 4°C to obtain plasma. Plasma samples were transferred to tubes preloaded with NaF (final concentration at 5 mM in 200 µL plasma) and stored at −80°C until analysis.\n(§1) For fat tissue, an additional 3-fold volume of acetonitrile was added to the water homogenate and was vortexed in a shaker for another 30 min.\n(§2) A 10 μ aliquot of samples, blank controls (blank plasma or tissue homogenates), quality controls (QC), and standards were added into 200 μ acetonitrile solution with 100 ng/mL tolbutamide (internal standard, IS). All samples were then thoroughly shaken for 5 min to precipitate proteins. The samples were centrifuged at 3000 rpm and 4°C for 30 min. The supernatant was injected for UPLC-MS/MS analysis.\n(§3) The mobile phase consisted of 0.1% formic acid in water (A) and 0.1% formic acid in acetonitrile (B), the flow rate was 600 μL/min. […] All analyses were carried out using a Waters Acquity I-Class UPLC interfaced with a Waters Xevo TQ-S mass spectrometer. The mass spectrometer multiple reaction monitoring (MRM) experiment was operated with an ESI source at negative mode with spray voltage of 1 kV, and temperature of 600°C. Both Q1 and Q3 were set at unit resolution. […] The correlation coefficients of the calibration curves were all greater than 0.99. […] The linear range, precision and accuracy of QCs in various tissues and plasma are shown in Supplementary Table S1 and Supplementary Table S2.\n(§4) The area under the concentration vs. time curve (AUC) was calculated using the linear trapezoidal method. The terminal rate constant (λ) was obtained from the slope of at least three data points of the apparent terminal phase of the log linear concentration vs. time curve. AUC0–∞ was estimated as the sum of the AUC0–t (where t is the time of the last measurable concentration) and Ct/λ. […] Bioavailability (F) was calculated using ratios of dose-normalized AUC of PO and IV administration."}, "in vivo [2]": {"experiment": "in vivo", "conditions": "hamster, in vivo", "experimental": "For the IV group, a single bolus IV dose of 3 mg/kg of PDN was administered to 24 hamsters (3 hamsters per time point). For the PO group, a dose of 30 mg/kg of PDN was administered via oral gavage to 21 hamsters (3 hamsters per time point). The formulation used for both IV and PO was 20% HP-β-CD in water (0.6 mg/mL PDN for IV and 3 mg/mL for PO). All dosing solutions were freshly prepared on the day of dosing. […] After collection, tissues were weighed and frozen. All blood samples were centrifuged at 4°C to obtain plasma. Plasma samples were transferred to tubes preloaded with NaF (final concentration at 5 mM in 200 µL plasma) and stored at −80°C until analysis.\nas §1, §2, §3, §4"}, "[3]": {"experiment": "PBPK model (GastroPlus): simulation and model parameters incl. permeability surface product and scaled metabolic kinetics, mouse", "conditions": "conversion to Others", "experimental": "(§5) CL in vitro,app expressed as mL/min/mg microsomes were scaled to the predicted CLintrinsic using scaling factor (SF), microsome level and liver weight as indicated below: CLintrinsic=CLin vitro,app×SF×liver weight×microsome level per gram liver\n(§6) All modeling and simulation were carried out using GastroPlus version 9.5 (Simulations Plus Inc., CA). Physiochemical parameters including blood-to-plasma ratio (Rbp), pKa, and logP were predicted by ADMET predictor (Simulations Plus Inc., CA). Physiologies of all species, including organ weights, volumes, tissue compositions, and blood perfusion rates, were generated by the program’s internal module. Tissue intracellular unbound fractions were generated by GastroPlus based on predicted or experimentally determined physiochemical and chemical-biological parameters including pKa, logP, plasma unbound fractions (Fup), Rbp, solubility, and PAMPA permeability. The PBPK model structure is illustrated in Figure 2 and its parameters are summarized in Supplementary Tables S3–6. The default absorption and dissolution model was applied and effective intestine permeability was predicted by a built-in correlation from the experimental PAMPA permeability result. Parameters including partition coefficients in tissue (Kp), CLintrinsic, and permeability surface area product (PStc) were estimated by fitting the model to experimental data using the optimization module in GastroPlus with objective function weights at 1/(y + ŷ)^2, where y is the observed value and ŷ is the predicted value.\nModel parameter estimation of all plasma-tissue partition coefficients (Kp) was performed simultaneously using both the IV and PO datasets. […] The experimentally determined pharmacokinetic profiles were compared with the model simulations."}, "[4]": {"experiment": "PBPK model (GastroPlus): simulation and model parameters incl. permeability surface product and scaled metabolic kinetics, hamster", "conditions": "conversion to Others", "experimental": "as §5, §6\nExperimental measurements of hamster plasma pharmacokinetics and lung concentrations were used in the model validation."}, "[5]": {"experiment": "PBPK model (GastroPlus): simulation and model parameters incl. permeability surface product and scaled metabolic kinetics, human", "conditions": "conversion to Others"}, "[6]": {"conditions": "mouse, pH 7.4", "method": "(§7) The incubation was carried out at 37°C for 15, 30, and 60 min. The reaction in plasma or liver microsomes was quenched by adding 200 μL of cold acetonitrile (containing 100 ng/mL tolbutamide as internal standard).\n(§8) The mc was the microsome concentration used in the incubation (0.5 mg/mL). The substrate disappearance half-life (t1/2) was estimated by regression analysis of the semi-logarithmic (ln Conc vs. time) plots. […] The Vmax, in vitro,app, PDN-total and Km for PDN depletion in liver microsomes were estimated by the Michaelis-Menten model using GraphPad Prism version 8."}, "[7]": {"conditions": "hamster, pH 7.4", "method": "as §7, §8"}, "[8]": {"conditions": "human, pH 7.4", "method": "as §7, §8"}, "[9]": {"conditions": "cited from earlier work"}, "[10]": {"conditions": "rat, in vivo, cited from earlier work"}, "[11]": {"conditions": "dog, in vivo; cited from earlier work"}, "[12]": {"conditions": "human, in vivo, po, cited from earlier work"}, "[13]": {"conditions": "cited from earlier work", "remark": "listed apart in the source"}, "[14]": {"conditions": "human; cited from earlier work"}, "UGT enzymes": {"system": "UGT enzymes", "conditions": "cited from earlier work"}, "[15]": {"conditions": "rats, acute toxicity test; ref Andrews et al., 1982; cited from earlier work"}, "in vitro": {"experiment": "in vitro", "conditions": "PAMPA, pH 7.4", "experimental": "The test samples (0.05 mM test article in pH 7.4 buffer with 0.5% DMSO) were added in the donor compartment and were stirred using the Gutbox technology (Pion Inc.) to reduce the aqueous boundary layer. The test article concentrations in the donor and acceptor compartments were measured using a UV plate reader (Nano Quant, Infinite 200 PRO, Tecan Inc., Männedorf, Switzerland)."}, "[16]": {"conditions": "male, LVG golden Syrian, po, 30 mg/kg"}, "[17]": {"conditions": "in vivo, predicted from in vitro liver parameters"}}, "note": "“And” between values parts separate entries of the source, which are not always exact repeats. Equal values may be shown once. Read-outs that look alike come from different tables or passages of the source. Marks after values point to notes of the source that are not given here."}
{"smiles": "CCCSc1ccc2nc(NC(=O)OC)[nH]c2c1", "note": "[Albendazole, reference compound]", "values": [{"measurement": "solubility", "setting": "physchem", "value": "< 1", "unit": "µg/mL"}]}
{"smiles": "O=C(Nc1ccc([N+](=O)[O-])cc1Cl)c1cc(Cl)ccc1O", "note": "[Nc, Niclosamide, reference compound]", "values": [{"measurement": "AUC(0-inf)", "setting": "in vivo [1]; iv, 3 mg/kg", "value": 577, "unit": "ng·h/mL"}, {"measurement": "AUC(0-inf)", "setting": "in vivo [1]; iv, 10 mg/kg", "value": 1390, "unit": "ng·h/mL"}, {"measurement": "AUC(0-inf)", "setting": "in vivo [1]; po, 10 mg/kg", "value": 1610, "unit": "ng·h/mL"}, {"measurement": "Cmax", "setting": "in vivo [1]; po, 10 mg/kg", "value": 346, "unit": "ng/mL"}, {"measurement": "dose-normalized AUC0-∞ of Nc", "setting": "in vivo [1]; po, 10 mg/kg", "value": "216 (h*ng/mL)/(mg/kg)"}, {"measurement": "AUC0-∞ Observed", "setting": "in vivo [2]; iv, 3 mg/kg", "value": "1030 (98) h*ng/g"}, {"measurement": "AUC0-∞ Observed", "setting": "in vivo [2]; po, 30 mg/kg", "value": "5020 (294) h*ng/g"}, {"measurement": "AUC(0-inf)", "setting": "in vivo [2]; male, LVG golden Syrian, iv, 3 mg/kg", "value": 203, "unit": "ng·h/mL"}, {"measurement": "AUC(0-inf)", "setting": "in vivo [2]; [16]", "value": 1890, "unit": "ng·h/mL"}, {"measurement": "Cmax", "setting": "in vivo [2]; [16]", "value": "1170 ng/g and 623 ng/mL"}, {"measurement": "dose normalized plasma AUC0-∞ of Nc", "setting": "in vivo [2]; [16]", "value": "88 (h*ng/mL)/(mg/kg)"}, {"measurement": "Tmax", "setting": "in vivo [2]; male, LVG golden Syrian, po, 30 mg/kg, Tmax Observed", "value": 1, "unit": "h"}, {"measurement": "half-life", "setting": "in vivo [2]; male, LVG golden Syrian, po, 30 mg/kg, t1/2 Observed", "value": "~1.9", "unit": "h"}, {"measurement": "Liver Vmax", "setting": "[3]; in vivo (scaled)", "value": 0.0949, "unit": "mg/s/mg microsomes"}, {"measurement": "Gut Vmax", "setting": "[3]; [17]", "value": 0.0408, "unit": "mg/s/mg microsomes"}, {"measurement": "Liver Vmax", "setting": "[4]; in vivo (scaled)", "value": 0.1463, "unit": "mg/s/mg microsomes"}, {"measurement": "Gut Vmax", "setting": "[4]; [17]", "value": 0.0629, "unit": "mg/s/mg microsomes"}, {"measurement": "Liver Vmax", "setting": "[5]; in vivo (scaled)", "value": 0.0738, "unit": "mg/s/mg microsomes"}, {"measurement": "Gut Vmax", "setting": "[5]; [17]", "value": 0.0317, "unit": "mg/s/mg microsomes"}, {"measurement": "Liver Vmax", "setting": "[6]", "value": 0.07474, "unit": "mg/s/mg microsomes"}, {"measurement": "Liver Vmax", "setting": "[7]", "value": 0.1152, "unit": "mg/s/mg microsomes"}, {"measurement": "Liver Vmax", "setting": "[8]", "value": 0.0581, "unit": "mg/s/mg microsomes"}, {"measurement": "PAMPA permeability", "setting": "[9]", "value": "<1 ^b 10^−6 cm/s"}, {"measurement": "oral bioavailability", "setting": "[10]; po", "value": 5.5, "unit": "%"}, {"measurement": "volume of distribution", "setting": "[10]", "value": "less than 0.4 L/kg"}, {"measurement": "oral bioavailability", "setting": "[11]", "value": 0.54, "unit": "%"}, {"measurement": "plasma Cmax", "setting": "[12]; 500 mg", "value": "35.7 to 182", "unit": "ng/mL"}, {"measurement": "serum maximal concentration (Cmax), Nc equivalent", "setting": "[12]; 2000 mg", "value": "250 to 6000", "unit": "ng/mL"}, {"measurement": "median plasma Cmax", "setting": "[12]", "value": 665, "unit": "ng/mL"}, {"measurement": "Fup (unbound fraction in plasma)", "setting": "[13]", "value": "0.14% (rodent) ^b"}, {"measurement": "plasma protein binding", "setting": "[13]", "value": "> 99.8", "unit": "%"}, {"measurement": "Fup (unbound fraction in plasma)", "setting": "[14]", "value": "0.16% (human) ^b"}, {"measurement": "Km", "setting": "UGT enzymes", "value": "0.09 to 1.67", "unit": "µM"}, {"measurement": "UGT-mediated hepatic CL in vitro,app", "setting": "UGT enzymes; mouse", "value": "0.18-0.21 mL/min/mg microsomes"}, {"measurement": "oral LD50", "setting": "[15]", "value": "> 5000", "unit": "mg/kg"}]}
{"smiles": "Nc1ccc(/N=N/c2ccccc2)c(N)n1", "note": "[Phenazolpyridine, reference compound]", "values": [{"measurement": "solubility", "setting": "physchem", "value": 26, "unit": "µg/mL"}]}
{"smiles": "CNC(=C[N+](=O)[O-])NCCSCc1ccc(CN(C)C)o1", "note": "[Ranitidine, reference compound]", "values": [{"measurement": "Papp at 0.05 mM", "setting": "in vitro", "value": "< 1", "unit": "×10⁻⁶ cm/s"}]}
